From PubChem BioAssay (NCI)
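Five concentrations, 48 hours, 96-well plates. Definition used: TGI = concentration required for complete inhibition of growth.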

What was measured:
Assay in all cases: NCI anticancer screen, dose series, 48 h
OVCAR-8 ovarian = tested on: OVCAR-8 ovarian
UACC-257 melanoma = tested on: UACC-257 melanoma
RXF 393 renal = tested on: RXF 393 renal
DLD-1 colon = tested on: DLD-1 colon
TK-10 renal = tested on: TK-10 renal
HOP-62 NSCLC = tested on: HOP-62 NSCLC
COLO 205 colon = tested on: COLO 205 colon
ACHN renal = tested on: ACHN renal
OVCAR-4 ovarian = tested on: OVCAR-4 ovarian
SR leukemia = tested on: SR leukemia
EKVX NSCLC = tested on: EKVX NSCLC
DMS 114 small cell lung = tested on: DMS 114 small cell lung
HOP-18 NSCLC = tested on: HOP-18 NSCLC
UACC-62 melanoma = tested on: UACC-62 melanoma
HL-60(TB) leukemia = tested on: HL-60(TB) leukemia
SNB-78 CNS = tested on: SNB-78 CNS
UO-31 renal = tested on: UO-31 renal
DMS 273 small cell lung = tested on: DMS 273 small cell lung
A549 NSCLC = tested on: A549 NSCLC
HOP-92 NSCLC = tested on: HOP-92 NSCLC
SK-MEL-28 melanoma = tested on: SK-MEL-28 melanoma
LOX IMVI melanoma = tested on: LOX IMVI melanoma
CCRF-CEM leukemia = tested on: CCRF-CEM leukemia
IGROV1 ovarian = tested on: IGROV1 ovarian
SNB-75 CNS = tested on: SNB-75 CNS
RPMI-8226 leukemia = tested on: RPMI-8226 leukemia
SK-OV-3 ovarian = tested on: SK-OV-3 ovarian
CAKI-1 renal = tested on: CAKI-1 renal
SF-268 CNS = tested on: SF-268 CNS
NCI-H460 lung = tested on: NCI-H460 lung
M19-MEL melanoma = tested on: M19-MEL melanoma
OVCAR-5 ovarian = tested on: OVCAR-5 ovarian
HCT-116 colon = tested on: HCT-116 colon
MOLT-4 leukemia = tested on: MOLT-4 leukemia
SW-620 colon = tested on: SW-620 colon
SF-539 CNS = tested on: SF-539 CNS
M14 melanoma = tested on: M14 melanoma
KM20L2 colon = tested on: KM20L2 colon
SF-295 CNS = tested on: SF-295 CNS
KM12 colon = tested on: KM12 colon
786-0 renal = tested on: 786-0 renal
SNB-19 CNS = tested on: SNB-19 CNS
NCI-H23 lung = tested on: NCI-H23 lung
HT29 colon = tested on: HT29 colon
NCI-H522 lung = tested on: NCI-H522 lung
MALME-3M melanoma = tested on: MALME-3M melanoma
U251 CNS = tested on: U251 CNS
SN12C renal = tested on: SN12C renal
NCI-H226 lung = tested on: NCI-H226 lung
OVCAR-3 ovarian = tested on: OVCAR-3 ovarian
LXFL 529 NSCLC = tested on: LXFL 529 NSCLC
K-562 leukemia = tested on: K-562 leukemia
HCC-2998 colon = tested on: HCC-2998 colon
A498 renal = tested on: A498 renal
SK-MEL-5 melanoma = tested on: SK-MEL-5 melanoma
XF 498 CNS = tested on: XF 498 CNS
HCT-15 colon = tested on: HCT-15 colon
SK-MEL-2 melanoma = tested on: SK-MEL-2 melanoma

CC1C[C@H](C)CC(C(O)CC2CC(=O)N(Cc3ccccc3)C(=O)C2)C1O (some centres undefined)
TGI (OVCAR-8 ovarian): > 100 µM | TGI (UACC-257 melanoma): > 100 µM | TGI (RXF 393 renal): > 100 µM | TGI (DLD-1 colon): > 100 µM | TGI (TK-10 renal): > 100 µM | TGI (HOP-62 NSCLC): > 100 µM | TGI (COLO 205 colon): > 100 µM | TGI (ACHN renal): > 100 µM | TGI (OVCAR-4 ovarian): > 100 µM | TGI (SR leukemia): > 100 µM | TGI (EKVX NSCLC): > 100 µM | TGI (DMS 114 small cell lung): > 100 µM | TGI (HOP-18 NSCLC): > 100 µM | TGI (UACC-62 melanoma): > 100 µM | TGI (HL-60(TB) leukemia): > 100 µM | TGI (SNB-78 CNS): > 100 µM | TGI (UO-31 renal): > 100 µM | TGI (DMS 273 small cell lung): > 100 µM | TGI (A549 NSCLC): > 100 µM | TGI (HOP-92 NSCLC): > 100 µM | TGI (SK-MEL-28 melanoma): > 100 µM | TGI (LOX IMVI melanoma): > 100 µM | TGI (CCRF-CEM leukemia): > 100 µM | TGI (IGROV1 ovarian): > 100 µM | TGI (SNB-75 CNS): > 100 µM | TGI (RPMI-8226 leukemia): > 100 µM | TGI (SK-OV-3 ovarian): > 100 µM | TGI (CAKI-1 renal): > 100 µM | TGI (SF-268 CNS): > 100 µM | TGI (NCI-H460 lung): > 100 µM | TGI (M19-MEL melanoma): > 100 µM | TGI (OVCAR-5 ovarian): > 100 µM | TGI (HCT-116 colon): > 100000 nM | TGI (MOLT-4 leukemia): > 100 µM | TGI (SW-620 colon): > 100 µM | TGI (SF-539 CNS): > 100 µM | TGI (M14 melanoma): > 100 µM | TGI (KM20L2 colon): > 100 µM | TGI (SF-295 CNS): > 100 µM | TGI (KM12 colon): > 100 µM | TGI (786-0 renal): > 100 µM | TGI (SNB-19 CNS): > 100 µM | TGI (NCI-H23 lung): > 100 µM | TGI (HT29 colon): > 100 µM | TGI (NCI-H522 lung): > 100000 nM | TGI (MALME-3M melanoma): > 100 µM | TGI (U251 CNS): > 100 µM | TGI (SN12C renal): > 100 µM | TGI (NCI-H226 lung): > 100000 nM | TGI (OVCAR-3 ovarian): > 100 µM | TGI (LXFL 529 NSCLC): > 100 µM | TGI (K-562 leukemia): > 100 µM | TGI (HCC-2998 colon): > 100 µM | TGI (A498 renal): > 100 µM

CC(=O)OC1CCCn2c1nc1c2C(=O)C(C)=C(N2CC2)C1=O (centres undefined)
TGI (OVCAR-8 ovarian): 1.37 µM | TGI (UACC-257 melanoma): 0.587 µM | TGI (RXF 393 renal): 0.768 µM | TGI (SK-MEL-5 melanoma): 351 nM | TGI (DLD-1 colon): 10.9 µM | TGI (TK-10 renal): 7.28 µM | TGI (HOP-62 NSCLC): 0.625 µM | TGI (COLO 205 colon): 1.2 µM | TGI (ACHN renal): 1.25 µM | TGI (OVCAR-4 ovarian): 2.35 µM | TGI (SR leukemia): > 100 µM | TGI (EKVX NSCLC): 1.9 µM | TGI (DMS 114 small cell lung): 2.38 µM | TGI (HOP-18 NSCLC): 1.11 µM | TGI (UACC-62 melanoma): 0.77 µM | TGI (HL-60(TB) leukemia): 14.6 µM | TGI (SNB-78 CNS): 2.88 µM | TGI (UO-31 renal): 5.07 µM | TGI (DMS 273 small cell lung): 0.552 µM | TGI (A549 NSCLC): 2.77 µM | TGI (HOP-92 NSCLC): 54.6 µM | TGI (SK-MEL-28 melanoma): 1.14 µM | TGI (LOX IMVI melanoma): 1.01 µM | TGI (CCRF-CEM leukemia): 59 µM | TGI (IGROV1 ovarian): 3.35 µM | TGI (SNB-75 CNS): 0.808 µM | TGI (RPMI-8226 leukemia): 14.2 µM | TGI (SK-OV-3 ovarian): 0.965 µM | TGI (CAKI-1 renal): 0.687 µM | TGI (SF-268 CNS): 1.05 µM | TGI (NCI-H460 lung): 0.296 µM | TGI (M19-MEL melanoma): 1.63 µM | TGI (OVCAR-5 ovarian): 1.32 µM | TGI (XF 498 CNS): 685 nM | TGI (HCT-15 colon): 726 nM | TGI (HCT-116 colon): 1960 nM | TGI (MOLT-4 leukemia): > 100 µM | TGI (SK-MEL-2 melanoma): 693 nM | TGI (SW-620 colon): 0.927 µM | TGI (SF-539 CNS): 1.43 µM | TGI (M14 melanoma): 0.337 µM | TGI (KM20L2 colon): 1.2 µM | TGI (SF-295 CNS): 0.665 µM | TGI (KM12 colon): 1.24 µM | TGI (786-0 renal): 1.65 µM | TGI (SNB-19 CNS): 1.38 µM | TGI (NCI-H23 lung): 0.373 µM | TGI (HT29 colon): 0.645 µM | TGI (NCI-H522 lung): 636 nM | TGI (MALME-3M melanoma): 0.47 µM | TGI (U251 CNS): 0.533 µM | TGI (SN12C renal): 1.5 µM | TGI (NCI-H226 lung): 944 nM | TGI (OVCAR-3 ovarian): 1.39 µM | TGI (LXFL 529 NSCLC): 1.66 µM | TGI (K-562 leukemia): > 35.2 µM | TGI (HCC-2998 colon): 0.722 µM | TGI (A498 renal): 0.36 µM

CC[P+](C)(C)c1ccccc1
TGI (OVCAR-8 ovarian): > 100 µM | TGI (UACC-257 melanoma): > 100 µM | TGI (RXF 393 renal): > 100 µM | TGI (SK-MEL-5 melanoma): > 100000 nM | TGI (DLD-1 colon): > 100 µM | TGI (TK-10 renal): > 100 µM | TGI (HOP-62 NSCLC): > 100 µM | TGI (COLO 205 colon): > 100 µM | TGI (ACHN renal): > 100 µM | TGI (OVCAR-4 ovarian): > 100 µM | TGI (EKVX NSCLC): > 100 µM | TGI (DMS 114 small cell lung): > 100 µM | TGI (HOP-18 NSCLC): 49.8 µM | TGI (UACC-62 melanoma): > 100 µM | TGI (SNB-78 CNS): > 100 µM | TGI (UO-31 renal): > 100 µM | TGI (DMS 273 small cell lung): > 100 µM | TGI (A549 NSCLC): > 100 µM | TGI (SK-MEL-28 melanoma): > 100 µM | TGI (LOX IMVI melanoma): > 100 µM | TGI (CCRF-CEM leukemia): > 100 µM | TGI (IGROV1 ovarian): > 100 µM | TGI (SNB-75 CNS): > 100 µM | TGI (RPMI-8226 leukemia): > 100 µM | TGI (SK-OV-3 ovarian): > 100 µM | TGI (CAKI-1 renal): > 100 µM | TGI (SF-268 CNS): > 100 µM | TGI (NCI-H460 lung): > 100 µM | TGI (M19-MEL melanoma): > 100 µM | TGI (OVCAR-5 ovarian): > 100 µM | TGI (XF 498 CNS): > 100000 nM | TGI (HCT-15 colon): > 100000 nM | TGI (MOLT-4 leukemia): > 100 µM | TGI (SK-MEL-2 melanoma): > 100000 nM | TGI (SW-620 colon): > 100 µM | TGI (SF-539 CNS): > 100 µM | TGI (M14 melanoma): > 100 µM | TGI (KM20L2 colon): > 100 µM | TGI (SF-295 CNS): > 100 µM | TGI (KM12 colon): > 100 µM | TGI (786-0 renal): > 100 µM | TGI (SNB-19 CNS): > 100 µM | TGI (NCI-H23 lung): > 100 µM | TGI (HT29 colon): > 100 µM | TGI (MALME-3M melanoma): > 100 µM | TGI (U251 CNS): > 100 µM | TGI (SN12C renal): > 100 µM | TGI (OVCAR-3 ovarian): > 100 µM | TGI (LXFL 529 NSCLC): > 100 µM | TGI (K-562 leukemia): > 100 µM | TGI (HCC-2998 colon): > 100 µM | TGI (A498 renal): > 100 µM
